Patent US9730937B2, “RAF kinase modulator compounds and methods of use thereof” (AMBIT BIOSCIENCES CORPORATION, priority 2008, dated 2017)

Tested on: panel of 290 distinct kinases (321 in the larger panel), excluding mutant variants
Conditions: no asterisk: panel of 290 distinct kinases

Q: `COc1cc2ncnc(Oc3cccc(NC(=O)Nc4cc(C(F)(F)F)nn4-c4ccccc4)c3C)c2cc1OC` [Ex 291, 1-(3-(6,7-Dimethoxyquinazolin-4-yloxy)-2-methylphenyl)-3-(1-phenyl-3-(trifluoromethyl)-1H-pyrazol-5-yl)urea] was tested. Which S35 did it give?
A: B (0.10 < B ≦ 0.20)

Q: How did the S35 turn out when `COc1cc2ncnc(Oc3cc(NC(=O)Nc4cc(C(C)(C)F)no4)ccc3F)c2cc1OC` [Ex 293, 1-(3-(6,7-dimethoxyquinazolin-4-yloxy)-4-fluorophenyl)-3-(3-(2-fluoropropan-2-yl)isoxazol-5-yl)urea] was run?
A: C (0.20 < C ≦ 0.40)

Q: How did the S35 turn out when `COc1cc2ncnc(Oc3cc(NC(=O)Nc4cc(C(C)(CF)CF)on4)ccc3F)c2cc1OC` [Ex 294, 1-(5-(1,3-difluoro-2-methylpropan-2-yl)isoxazol-3-yl)-3-(3-(6,7-dimethoxyquinazolin-4-yloxy)-4-fluorophenyl)urea] was run?
A: D (D > 0.40)

Q: `COc1cc2ncnc(Oc3cccc(NC(=O)Nc4cc(C(C)(C)C)nn4-c4ccccc4)c3F)c2cc1OC` [Ex 295, 1-(3-tert-butyl-1-phenyl-1H-pyrazol-5-yl)-3-(3-(6,7-dimethoxyquinazolin-4-yloxy)-2-fluorophenyl)urea] was tested. Which S35 did it give?
A: C (0.20 < C ≦ 0.40)

Q: For `COc1cc2ncnc(Oc3cccc(NC(=O)Nc4cc(C(C)(C)F)no4)c3F)c2cc1OC` [Ex 296, 1-(3-(6,7-dimethoxyquinazolin-4-yloxy)-2-fluorophenyl)-3-(3-(2-fluoropropan-2-yl)isoxazol-5-yl)urea], which S35 is on record?
A: B (0.10 < B ≦ 0.20)

Q: For `COc1cc2ncnc(Oc3cccc(NC(=O)Nc4cc(C(C)(CF)CF)on4)c3F)c2cc1OC` [Ex 297, 1-(5-(1,3-difluoro-2-methylpropan-2-yl)isoxazol-3-yl)-3-(3-(6,7-dimethoxyquinazolin-4-yloxy)-2-fluorophenyl)urea], which S35 is on record?
A: C (0.20 < C ≦ 0.40)

Q: With `COc1cc2ncnc(Oc3ccc(Cl)c(NC(=O)Nc4cc(C(C)(C)C)nn4-c4ccc(C)cc4)c3)c2cc1OC` [Ex 298, 1-(3-tert-butyl-1-p-tolyl-1H-pyrazol-5-yl)-3-(2-chloro-5-(6,7-dimethoxyquinazolin-4-yloxy)phenyl)urea] as the molecule, how does the S35 read?
A: D (D > 0.40)

Q: How did the S35 turn out when `COc1cc2ncnc(Oc3ccc(Cl)c(NC(=O)Nc4cc(C(C)(C)C)on4)c3)c2cc1OC` [Ex 299, 1-(5-tert-butylisoxazol-3-yl)-3-(2-chloro-5-(6,7-dimethoxyquinazolin-4-yloxy)phenyl)urea] was run?
A: C (0.20 < C ≦ 0.40)

Q: For `COc1cc2ncnc(Oc3ccc(Cl)c(NC(=O)Nc4cc(C(F)(F)F)nn4-c4ccccc4)c3)c2cc1OC` [Ex 300, 1-(2-chloro-5-(6,7-dimethoxyquinazolin-4-yloxy)phenyl)-3-(1-phenyl-3-(trifluoromethyl)-1H-pyrazol-5-yl)urea], which S35 is on record?
A: C (0.20 < C ≦ 0.40)

Q: With `COc1cc2ncnc(Oc3ccc(Cl)c(NC(=O)Nc4cc(C(C)(C)C)nn4-c4ccccc4)c3)c2cc1OC` [Ex 301, 1-(3-tert-butyl-1-phenyl-1H-pyrazol-5-yl)-3-(2-chloro-5-(6,7-dimethoxyquinazolin-4-yloxy)phenyl)urea] as the molecule, how does the S35 read?
A: D (D > 0.40)

Q: Which S35 does the source give for `COc1cc2ncnc(Oc3cccc(NC(=O)Nc4cc(C(C)(C)CN5CCOCC5)on4)c3)c2cc1OC` [Ex 302, 1-(3-(6,7-dimethoxyquinazolin-4-yloxy)phenyl)-3-(5-(2-methyl-1-morpholinopropan-2-yl)isoxazol-3-yl)urea] here?
A: B (0.10 < B ≦ 0.20)

Q: For `COc1cc2ncnc(Oc3cccc(NC(=O)Nc4cc(C(C)(C)C)nn4-c4cnccc4C)c3)c2cc1OC` [Ex 303, 1-(3-tert-butyl-1-(4-methylpyridin-3-yl)-1H-pyrazol-5-yl)-3-(3-(6,7-dimethoxyquinazolin-4-yloxy)phenyl)urea], which S35 is on record?
A: D (D > 0.40)

Q: How did the S35 turn out when `COc1cc2ncnc(Oc3cccc(NC(=O)Nc4cc(C(F)(F)C(F)(F)F)nn4-c4ccccc4)c3)c2cc1OC` [Ex 304, 1-(3-(6,7-dimethoxyquinazolin-4-yloxy)phenyl)-3-(3-(perfluoroethyl)-1-phenyl-1H-pyrazol-5-yl)urea] was run?
A: C (0.20 < C ≦ 0.40)

Q: For `COc1cc2ncnc(Sc3cccc(NC(=O)Nc4cc(C5CCC5)nn4-c4ccccc4)c3)c2cc1OC` [Ex 356, 1-(3-cyclobutyl-1-phenyl-1H-pyrazol-5-yl)-3-(3-(6,7-dimethoxyquinazolin-4-ylthio)phenyl)urea], which S35 is on record?
A: C (0.20 < C ≦ 0.40)

Q: How did the S35 turn out when `COc1cc2ncnc(Oc3cccc(NC(=O)Nc4cc(C(C)(C)C)nn4Cc4ccccc4)c3)c2cc1OC` [Ex 357, 1-(1-benzyl-3-tert-butyl-1H-pyrazol-5-yl)-3-(3-(6,7-dimethoxyquinazolin-4-yloxy)phenyl)urea] was run?
A: C (0.20 < C ≦ 0.40)

Q: For `COc1cc2ncnc(Sc3cccc(NC(=O)Nc4cc(C(C)(C)C)nn4Cc4ccccc4)c3)c2cc1OC` [Ex 358, 1-(1-benzyl-3-tert-butyl-1H-pyrazol-5-yl)-3-(3-(6,7-dimethoxyquinazolin-4-ylthio)phenyl)urea], which S35 is on record?
A: C (0.20 < C ≦ 0.40)

Q: `COc1cc2ncnc(Oc3cccc(NC(=O)Nc4cc(C(C)(C)C)nn4-c4cccc(F)c4)c3)c2cc1OC` [Ex 359, 1-(3-tert-butyl-1-(3-fluorophenyl)-1H-pyrazol-5-yl)-3-(3-(6,7-dimethoxyquinazolin-4-yloxy)phenyl)urea] was tested. Which S35 did it give?
A: D (D > 0.40)

Q: For `COc1cc2ncnc(Sc3cccc(NC(=O)Nc4cc(C(C)(C)C)nn4-c4cccc(F)c4)c3)c2cc1OC` [Ex 360, 1-(3-tert-butyl-1-(3-fluorophenyl)-1H-pyrazol-5-yl)-3-(3-(6,7-dimethoxyquinazolin-4-ylthio)phenyl)urea], which S35 is on record?
A: D (D > 0.40)

Q: For `COc1ccc(-n2nc(C(C)(C)C)cc2NC(=O)Nc2cccc(Oc3ncnc4cc(OC)c(OC)cc34)c2)cc1` [Ex 361, 1-(3-tert-butyl-1-(4-methoxyphenyl)-1H-pyrazol-5-yl)-3-(3-(6,7-dimethoxyquinazolin-4-yloxy)phenyl)urea], which S35 is on record?
A: C (0.20 < C ≦ 0.40)

Q: With `COc1ccc(-n2nc(C(C)(C)C)cc2NC(=O)Nc2cccc(Sc3ncnc4cc(OC)c(OC)cc34)c2)cc1` [Ex 362, 1-(3-tert-butyl-1-(4-methoxyphenyl)-1H-pyrazol-5-yl)-3-(3-(6,7-dimethoxyquinazolin-4-ylthio)phenyl)urea] as the molecule, how does the S35 read?
A: D (D > 0.40)

Q: With `COc1cc2ncnc(Oc3cccc(NC(=O)Nc4cc(C(C)(C)C)nn4-c4cccc(Cl)c4)c3)c2cc1OC` [Ex 363, 1-(3-tert-butyl-1-(3-chlorophenyl)-1H-pyrazol-5-yl)-3-(3-(6,7-dimethoxyquinazolin-4-yloxy)phenyl)urea] as the molecule, how does the S35 read?
A: D (D > 0.40)

Q: How did the S35 turn out when `COc1cc2ncnc(Sc3cccc(NC(=O)Nc4cc(C(C)(C)C)nn4-c4cccc(Cl)c4)c3)c2cc1OC` [Ex 364, 1-(3-tert-butyl-1-(3-chlorophenyl)-1H-pyrazol-5-yl)-3-(3-(6,7-dimethoxyquinazolin-4-ylthio)phenyl)urea] was run?
A: D (D > 0.40)

Q: How did the S35 turn out when `COc1cc2ncnc(Oc3cccc(NC(=O)Nc4cc(C(C)(C)C)nn4-c4ccc(Cl)cc4)c3)c2cc1OC` [Ex 365, 1-(3-tert-butyl-1-(4-chlorophenyl)-1H-pyrazol-5-yl)-3-(3-(6,7-dimethoxyquinazolin-4-yloxy)phenyl)urea] was run?
A: D (D > 0.40)

Q: `COc1cc2ncnc(Sc3cccc(NC(=O)Nc4cc(C(C)(C)C)nn4-c4ccc(Cl)cc4)c3)c2cc1OC` [Ex 366, 1-(3-tert-butyl-1-(4-chlorophenyl)-1H-pyrazol-5-yl)-3-(3-(6,7-dimethoxyquinazolin-4-ylthio)phenyl)urea] was tested. Which S35 did it give?
A: D (D > 0.40)

Q: How did the S35 turn out when `COc1cc2ncnc(Oc3ccc(F)c(NC(=O)Nc4cc(C(C)(C)C)on4)c3)c2cc1OC` [Ex 367, 1-(5-tert-butylisoxazol-3-yl)-3-(5-(6,7-dimethoxyquinazolin-4-yloxy)-2-fluorophenyl)urea] was run?
A: D (D > 0.40)

Q: Which S35 does the source give for `COc1cc2ncnc(Oc3ccc(F)c(NC(=O)Nc4cc(C(C)(C)C)nn4-c4ccccc4)c3)c2cc1OC` [Ex 368, 1-(3-tert-butyl-1-phenyl-1H-pyrazol-5-yl)-3-(5-(6,7-dimethoxyquinazolin-4-yloxy)-2-fluorophenyl)urea] here?
A: D (D > 0.40)

Q: How did the S35 turn out when `COc1cc2ncnc(Oc3cccc(NC(=O)Nc4cc(C(C)(C)C)nn4-c4ccc(C(C)(C)C)cc4)c3)c2cc1OC` [Ex 369, 1-(3-tert-butyl-1-(4-tert-butylphenyl)-1H-pyrazol-5-yl)-3-(3-(6,7-dimethoxyquinazolin-4-yloxy)phenyl)urea] was run?
A: C (0.20 < C ≦ 0.40)

Q: How did the S35 turn out when `COc1cc2ncnc(Sc3cccc(NC(=O)Nc4cc(C(C)(C)C)nn4-c4ccc(C(C)(C)C)cc4)c3)c2cc1OC` [Ex 370, 1-(3-tert-butyl-1-(4-tert-butylphenyl)-1H-pyrazol-5-yl)-3-(3-(6,7-dimethoxyquinazolin-4-ylthio)phenyl)urea] was run?
A: D (D > 0.40)

Q: For `COc1cc2ncnc(Sc3cccc(NC(=O)Nc4cc(C(C)(C)C)nn4-c4ccccc4F)c3)c2cc1OC` [Ex 371, 1-(3-tert-butyl-1-(2-fluorophenyl)-1H-pyrazol-5-yl)-3-(3-(6,7-dimethoxyquinazolin-4-ylthio)phenyl)urea], which S35 is on record?
A: D (D > 0.40)

Q: How did the S35 turn out when `COc1cc2ncnc(Oc3cccc(NC(=O)Nc4cc(C(C)(C)C)nn4-c4ccccc4F)c3)c2cc1OC` [Ex 372, 1-(3-tert-butyl-1-(2-fluorophenyl)-1H-pyrazol-5-yl)-3-(3-(6,7-dimethoxyquinazolin-4-yloxy)phenyl)urea] was run?
A: D (D > 0.40)

Q: How did the S35 turn out when `COc1cc2ncnc(Oc3cccc(NC(=O)Nc4cc(C(C)(C)C)nn4-c4ccc(C(F)(F)F)cc4)c3)c2cc1OC` [Ex 373, 1-(3-tert-butyl-1-(4-(trifluoromethyl)phenyl)-1H-pyrazol-5-yl)-3-(3-(6,7-dimethoxyquinazolin-4-yloxy)phenyl)urea] was run?
A: C (0.20 < C ≦ 0.40)

Q: How did the S35 turn out when `COc1cc2ncnc(Sc3cccc(NC(=O)Nc4cc(C(C)(C)C)nn4-c4ccccc4C(F)(F)F)c3)c2cc1OC` [Ex 375, 1-(3-tert-butyl-1-(2-(trifluoromethyl)phenyl)-1H-pyrazol-5-yl)-3-(3-(6,7-dimethoxyquinazolin-4-ylthio)phenyl)urea] was run?
A: C (0.20 < C ≦ 0.40)

Q: For `COc1cc2ncnc(Oc3cccc(NC(=O)Nc4cc(C(C)(C)C)nn4-c4ccccc4C(F)(F)F)c3)c2cc1OC` [Ex 376, 1-(3-tert-butyl-1-(2-(trifluoromethyl)phenyl)-1H-pyrazol-5-yl)-3-(3-(6,7-dimethoxyquinazolin-4-yloxy)phenyl)urea], which S35 is on record?
A: D (D > 0.40)
